Test results reported in patent publication US20240189266A1, “Lactoyl Amino Acids for the Treatment of Metabolic Disease” (The Board of Trustees of the Leland Stanford Junior …, priority 2021, published 2024).

Key:
[1] = test system: serotonin (5-HT)-positive neurons in the dorsal raphe nuclei (DRN); test: Whole-cell patch-clamp slice electrophysiology, 5-HT neurons; assay type: cell-based, mice; settings: 50 μM
Method: (§1) Slice electrophysiology studies. Several genetic mouse strains were used for electrophysiological recordings from identified neural populations. These included AgRP-IRES-Cre/Rosa26-LSL-tdTOMATO mice for recordings from AgRP neurons in the arcuate nucleus of hypothalamus (ARH); POMC-CreER/Rosa26-LSL-tdTOMATO mice (with 200 mg/kg tamoxifen induction at 8-12 weeks) were used for recordings from POMC neurons in the ARH; SF1-Cre/Rosa26-LSL-tdTOMATO mice were used for recordings from SF1 neurons in the ventromedial hypothalamus (VMH); TPH2-CreER/Rosa26-LSL-tdTOMATO mice (with 200 mg/kg tamoxifen induction at 8-12 weeks) were used for recording from 5-HT neurons in the dorsal raphe nucleus (DRN). […]
(§2) Slices were transferred to the recording chamber at 32° C. and perfused continuously with oxygenated ACSF at a flow rate of 1.8-2.0 ml/min. […] Recordings were made using a MultiClamp 700B amplifier (Axon Instruments), sampled using Digidata 1440A, and analyzed offline with pClamp 10.3 software (Axon Instruments). Series resistance was monitored during the recording, and the values were generally <10 MO and were not compensated. The liquid junction potential was monitored and corrected. […] Each neuron was recorded for at least 1 minute at baseline and only the neurons with stable baseline were used to test the Lac-Phe treatment. […]

[2] = Plasma Lac-Phe level after intraperitoneal injection; assay type: in vivo; settings: C57BL/6J DIO, mouse, 50 mg/kg IP, DIO mice, mean±SEM, read-out: plasma levels 30 min post injection
Method: General animal information. Animal experiments were performed according to procedure approved by the Stanford University Administrative Panel on Laboratory Animal Care (APLAC). Mice were maintained in 12-hr light-dark cycles at 22° C. and ˜50% relative humidity and fed a standard irradiated rodent chow diet. Where indicated, high-fat diet (D12492, Research Diets 60% kcal from fat) was used. C57BL/6J (stock no. 000664) and C57BL/6J DIO mice (stock no. 380050) were purchased from Jackson Laboratory. C57BL/6NCrl (stock no. 027) mice were purchased from Charles River Laboratory. Whole body CNDP2 knockout mice (catalog number, C57BL/6NCrl-Cndp2em1(IMPC)Mbp/Mmucd, RRID: MMRRC_043492-UCD) were obtained from the Mutant Mouse Regional Resource Center, a NCRR-NIH funded strain repository. For in vivo injection of mice with compounds including Lac-Phe, lactate, and phenylalanine, compounds were dissolved in 18:1:1 (by volume) of saline/Kolliphor EL (Sigma Aldrich)/DMSO. Compounds were administered to mice daily via intraperitoneal injections at 5 μl/g body weight at the indicated doses. For all injection experiments, mice were mock injected with the vehicle for 3-5 days until body weights have stabilized. For glucose tolerance tests, mice were fasted for 6 hours then injected with glucose at 10 μl/g body weight. A dose of 1 g/kg was used for the GTT of vehicle and Lac-Phe treated obese mice. […]

[3] = 9-day Lac-Phe treatment of 18 week DIO mice (FIG. 17); assay type: in vivo; settings: 50 mg/kg/day IP
Method: (§3) General animal information. Animal experiments were performed according to procedure approved by the Stanford University Administrative Panel on Laboratory Animal Care (APLAC). Mice were maintained in 12-hr light-dark cycles at 22° C. and ˜50% relative humidity and fed a standard irradiated rodent chow diet. Where indicated, high-fat diet (D12492, Research Diets 60% kcal from fat) was used. C57BL/6J (stock no. 000664) and C57BL/6J DIO mice (stock no. 380050) were purchased from Jackson Laboratory. C57BL/6NCrl (stock no. 027) mice were purchased from Charles River Laboratory. Whole body CNDP2 knockout mice (catalog number, C57BL/6NCrl-Cndp2em1(IMPC)Mbp/Mmucd, RRID: MMRRC_043492-UCD) were obtained from the Mutant Mouse Regional Resource Center, a NCRR-NIH funded strain repository. For in vivo injection of mice with compounds including Lac-Phe, lactate, and phenylalanine, compounds were dissolved in 18:1:1 (by volume) of saline/Kolliphor EL (Sigma Aldrich)/DMSO. Compounds were administered to mice daily via intraperitoneal injections at 5 μl/g body weight at the indicated doses. For all injection experiments, mice were mock injected with the vehicle for 3-5 days until body weights have stabilized. For glucose tolerance tests, mice were fasted for 6 hours then injected with glucose at 10 μl/g body weight. A dose of 1 g/kg was used for the GTT of vehicle and Lac-Phe treated obese mice.

[4] = Chronic 10-day Lac-Phe administration to DIO mice (food intake, body weight, GTT, tissue weights); assay type: in vivo
Method: as §3

[5] = 7-day comparison of Lac-Phe with lactate and phenylalanine in DIO mice; assay type: in vivo; settings: 50 mg/kg IP daily, 13-week male DIO mice
Method: as §3

[6] = test system: SF1-positive neurons of the ventromedial hypothalamic nucleus (VMH); test: Whole-cell patch-clamp slice electrophysiology, SF1 neurons; assay type: cell-based, mice; settings: 50 μM
Method: as §1, §2

POMC neurons in the ARH = test: Whole-cell patch-clamp slice electrophysiology, POMC neurons; assay type: cell-based, mice
Method: Slice electrophysiology studies. Several genetic mouse strains were used for electrophysiological recordings from identified neural populations. These included AgRP-IRES-Cre/Rosa26-LSL-tdTOMATO mice for recordings from AgRP neurons in the arcuate nucleus of hypothalamus (ARH); POMC-CreER/Rosa26-LSL-tdTOMATO mice (with 200 mg/kg tamoxifen induction at 8-12 weeks) were used for recordings from POMC neurons in the ARH; SF1-Cre/Rosa26-LSL-tdTOMATO mice were used for recordings from SF1 neurons in the ventromedial hypothalamus (VMH); TPH2-CreER/Rosa26-LSL-tdTOMATO mice (with 200 mg/kg tamoxifen induction at 8-12 weeks) were used for recording from 5-HT neurons in the dorsal raphe nucleus (DRN). Mice (males and females, 8-16 weeks old) were anesthetized with isoflurane and transcardially perfused with a modified ice-cold sucrose-based cutting solution (pH 7.4; containing 10 mM NaCl, 25 mM NaHCO3, 195 mM sucrose, 5 mM glucose, 2.5 mM KCl, 1.25 mM NaH2PO4, 2 mM sodium pyruvate, 0.5 mM CaCl2, and 7 mM MgCl2, bubbled continuously with 95% O2 and 5% CO2). The mice were then decapitated, and the entire brain was removed and immediately submerged in the cutting solution. […]
(§4) Slices were transferred to the recording chamber at 32° C. and perfused continuously with oxygenated ACSF at a flow rate of 1.8-2.0 ml/min. […] Recordings were made using a MultiClamp 700B amplifier (Axon Instruments), sampled using Digidata 1440A, and analyzed offline with pClamp 10.3 software (Axon Instruments). Series resistance was monitored during the recording, and the values were generally <10 MO and were not compensated. The liquid junction potential was monitored and corrected. […] To ensure each recorded neuron receive same amount of Lac-Phe, the neurons located on the surface of the slice were selected to record and the puff pipette was always put at a 100 μm horizontal and 100 μm vertical distance from the recorded neurons. […] Each neuron was recorded for at least 1 minute at baseline and only the neurons with stable baseline were used to test the Lac-Phe treatment. […]

[7] = test system: AgRP neurons in the arcuate nucleus of hypothalamus (ARH); test: Whole-cell patch-clamp slice electrophysiology, AgRP neurons; assay type: cell-based, mice
Method: Slice electrophysiology studies. Several genetic mouse strains were used for electrophysiological recordings from identified neural populations. These included AgRP-IRES-Cre/Rosa26-LSL-tdTOMATO mice for recordings from AgRP neurons in the arcuate nucleus of hypothalamus (ARH); POMC-CreER/Rosa26-LSL-tdTOMATO mice (with 200 mg/kg tamoxifen induction at 8-12 weeks) were used for recordings from POMC neurons in the ARH; SF1-Cre/Rosa26-LSL-tdTOMATO mice were used for recordings from SF1 neurons in the ventromedial hypothalamus (VMH); TPH2-CreER/Rosa26-LSL-tdTOMATO mice (with 200 mg/kg tamoxifen induction at 8-12 weeks) were used for recording from 5-HT neurons in the dorsal raphe nucleus (DRN). Mice (males and females, 8-16 weeks old) were anesthetized with isoflurane and transcardially perfused with a modified ice-cold sucrose-based cutting solution (pH 7.4; containing 10 mM NaCl, 25 mM NaHCO3, 195 mM sucrose, 5 mM glucose, 2.5 mM KCl, 1.25 mM NaH2PO4, 2 mM sodium pyruvate, 0.5 mM CaCl2, and 7 mM MgCl2, bubbled continuously with 95% O2 and 5% CO2). The mice were then decapitated, and the entire brain was removed and immediately submerged in the cutting solution. Coronal slices (220 μm) were cut with a Microm HM 650V vibratome (Thermo Scientific). Brain slices containing the desired region (ARH, VMH, or DRN) were collected for each corresponding mouse, and recordings were made at levels throughout this brain region. The slices were recovered for ˜30 minutes at 32° C. and then maintained at room temperature for another 1 hour in oxygenated (95% O2 and 5% CO2) artificial cerebrospinal fluid (ACSF, pH 7.4; containing 126 mM NaCl, 2.5 mM KCl, 2.4 mM CaCl2, 1.2 mM NaH2PO4, 1.2 mM MgCl2, 11.1 mM glucose, and 21.4 mM NaHCO3) before recording.
as §4

[8] = Acute Lac-Phe administration to DIO mice in metabolic chambers; assay type: in vivo; settings: single 50 mg/kg IP
Method: as §3

[9] = test system: primary peritoneal macrophages; test: In vitro Lac-Phe production assay with added lactate, primary macrophages; assay type: cell-based, mice; settings: lactate 25 mM in conditioned media
Method: Primary peritoneal macrophage isolation. Mice were injected with 2 ml of 3% brewer thioglycollate medium (Fisher, B111716) and the macrophage elicitation allowed to proceed for 3 days. For the macrophage isolation, mice were euthanized with CO2 and the abdominal skin peeled back to expose the peritoneal wall. 10 ml of ice-cold calcium and magnesium free DPBS was injected into the peritoneal cavity, taking care not to puncture the organs. The mice were gently massaged and the fluid aspirated from the peritoneum using the same syringe and needle. The fluid was dispensed into a 50 ml falcon tube on ice. Cells were then centrifuged at 4° C. for 10 minutes at 400×g. The supernatant was discarded and the cells re-suspended in cold DMEM/F-12 containing 10% FBS and pen/strep. Cells were allowed to adhere in the incubator for at least 2 hours then washed three times in warm PBS to remove non-adherent cells. Fresh media was added to the cells and experiments performed within 1-2 days after the isolation.
In vitro Lac-Phe Production assay. Cells were plated in 12-well plates at 70-80% confluence. The next day, cells were washed two times with PBS and incubated in 0.5 ml serum free media. After overnight incubation, 400 μl of media was removed and 20 μl of 1 M hydrochloride added to acidify the media and protonate Lac-Phe. […]

RAW264.7 cells = test: In vitro Lac-Phe production assay with added lactate, RAW264.7; assay type: cell-based, murine; settings: lactate 25 mM in conditioned media
Method: Cell line cultures. All cell lines were obtained from ATCC and grown at 37° C. with 5% CO2. RAW 264.7, HEK293T, HEK293A, C2C12, F442A, 3T3-L1, Caco2, and SW48 were grown in Dulbecco's modified Eagle's medium (DMEM) with 10% fetal bovine serum (FBS) and penicillin/streptomycin (pen/strep). AML-12 cells were grown in DMEM with 10% FBS and pen/strep supplemented with Insulin-Transferrin-Selenium. T84 cells were grown in Dulbecco's modified Eagle's medium/nutrient mixture F-12 (DMEM/F-12) with 5% FBS and pen/strep.
In vitro Lac-Phe Production assay. Cells were plated in 12-well plates at 70-80% confluence. The next day, cells were washed two times with PBS and incubated in 0.5 ml serum free media. After overnight incubation, 400 μl of media was removed and 20 μl of 1 M hydrochloride added to acidify the media and protonate Lac-Phe. 400 μl of ethyl acetate was added into each sample and vortexed for 30 seconds to extract Lac-Phe into the organic layer. 300 μl from the top layer was transferred to a new Eppendorf tube and dried down under a stream of nitrogen. The residue was re-suspended in 100 ul of an 80:20 mixture of acetonitrile/water. Cells were kept on ice to harvest the lysate. 150 μl of PBS was added into each well and the cells scraped into an Eppendorf tube. This step was repeated again to ensure all cells have been harvested. […]

[10] = 50 mg/kg/day IP, 10 days, DIO mice

Compound: C[C@H](O)C(=O)N[C@@H](Cc1ccccc1)C(=O)O [Lac-Phe, N-lactoyl-phenylalanine]
- excitability of 5-HT-positive neurons [1]: No effect
- concentration at 30 min [2]: 3.8 µM
- glucose homeostasis (glucose tolerance test) ([3]; 1 g/kg glucose, 6 h fast): improves glucose homeostasis
- body weight ([3]; 9-day, 18 week male DIO mice): suppresses
- appetite (cumulative food intake) ([3]; 18 week male DIO mice): suppresses
- brown fat (BAT) mass vs vehicle [4, 10]: −41%
- change in total body weight [4, 10]: −7%
- epididymal fat (eWAT) mass vs vehicle [4, 10]: −20%
- subcutaneous inguinal fat (iWAT) mass vs vehicle [4, 10]: −41%
- total lean mass, estimated by weights of other organs [4, 10]: unaffected
- reduction in body weight ([4]; 50 mg/kg/day IP, 10 days, DIO mice, mean±SEM): -2.8 ± 1.1 g
- food intake, chronic treatment ([4]; 50 mg/kg/day IP, 10 days, DIO mice, mean±SEM (vehicle 2.9±0.1)): 2.1±0.1 g/mouse/day
- glucose tolerance test ([4]; day 10, 1 g/kg glucose, 6 h fast, vs vehicle): improved glucose clearance
- body weight vs control [5]: suppressed
- food intake vs control [5]: suppressed
- excitability of SF1-positive neurons [6]: No effect
- effect on POMC neurons (firing frequency, depolarization) (POMC neurons in the ARH; 50 μM): rapidly activate
- depolarization of POMC neurons in presence of inhibitor cocktail (POMC neurons in the ARH; 50 μM with inhibitor cocktail): persisted
- concentration required to activate POMC neurons (POMC neurons in the ARH; dose response): at least 20 μM
- effect on AgRP neurons (firing frequency, resting membrane potential) ([7]; 50 μM): rapidly inhibited
- hyperpolarization of AgRP neurons in presence of TTX, DNQX, D-AP5, bicuculline ([7]; 50 μM with inhibitor cocktail): persisted
- AgRP neurons hyperpolarized (response ratio) ([7]; all concentrations tested, baseline or inhibitor-treated): > 70%
- concentration showing inhibitory activity on AgRP neurons ([7]; dose response, lowest active concentration): ≥ 1 µM
- suppression of food intake compared to vehicle-treated mice ([8]; 12 h post-administration): 52%
- carbon dioxide production (VCO2) ([8]; 12 hr): did not alter
- oxygen consumption (VO2) ([8]; 12 hr): did not alter
- respiratory exchange ratio (RER) ([8]; 12 hr): did not alter
- food intake over 12 h post-administration ([8]; mean±SEM (vehicle 6.4±0.6)): 3.0±1.0 kcal/mouse
- ambulatory activity ([8]; vs vehicle): not different between groups

Compound: C[C@H](O)C(=O)[O-].[Na+] [lactate, sodium L-lactate]
- body weight vs control [5]: identical to vehicle treated mice
- food intake vs control [5]: identical to vehicle treated mice
- increase of extracellular levels of Lac-Phe [9]: +200%
- increase of extracellular levels of Lac-Phe (RAW264.7 cells): +85%

Compound: N[C@@H](Cc1ccccc1)C(=O)O [phenylalanine, L-Phenylalnine]
- body weight vs control [5]: identical to vehicle treated mice
- food intake vs control [5]: identical to vehicle treated mice
